Type in all cases: functional
The subject of one assay is KM12. Description: Cytotoxicity against Homo sapiens (human) KM12 after 48 hr by Alamar Blue assay. The following applies: KM12, 48 h.
The subject of the next assay is MDA-MB-435. Description: Cytotoxicity against Homo sapiens (human) MDA-MB-435 after 48 hr by Alamar Blue assay. Conditions: MDA-MB-435, 48 h.
The next assay has as its system MDA-MB-231. Description: Cytotoxicity against Homo sapiens (human) MDA-MB-231 after 48 hr by Alamar Blue assay. The following applies: MDA-MB-231, 48 h.
Another assay concerns K562. Description: Cytotoxicity against Homo sapiens (human) K562 after 48 hr by Alamar Blue assay. The following applies: K562, 48 h. A general note: The colour change of resazurin is a common sign of viable cells or microbes.
The subject of the next assay is 786-0. Description: Cytotoxicity against Homo sapiens (human) 786-0 after 48 hr by Alamar Blue assay. Conditions: 786-0, 48 h.
For a further assay, the system named is UACC-62. The assay is described as follows: Cytotoxicity against Homo sapiens (human) UACC62 after 48 hr by Alamar Blue assay. The following applies: UACC-62, 48 h.
In another assay the test system is SK-MEL-28. Description: Cytotoxicity against Homo sapiens (human) SK-MEL-28 after 48 hr by Alamar Blue assay. Conditions: SK-MEL-28, 48 h.
In another assay the test system is SK-MEL-2. The assay is described as follows: Cytotoxicity against Homo sapiens (human) SK-MEL-2 after 48 hr by Alamar Blue assay. Conditions: SK-MEL-2, 48 h.
In the next assay the test system is LOX IMVI. Description: Cytotoxicity against Homo sapiens (human) LOXIMVI after 48 hr by Alamar Blue assay.
Another assay relates to U-251. The assay is described as follows: Cytotoxicity against Homo sapiens (human) U251 after 48 hr by Alamar Blue assay. The following applies: U-251, 48 h.
A further assay relates to SF-539. The assay is described as follows: Cytotoxicity against Homo sapiens (human) SF539 after 48 hr by Alamar Blue assay. The following applies: SF-539, 48 h.
The subject of another assay is NCI-H23. The assay is described as follows: Cytotoxicity against Homo sapiens (human) NCI-H23 after 48 hr by Alamar Blue assay. Conditions: NCI-H23, 48 h.

The record followed here is ChEMBL document CHEMBL3046904, “Synthesis, characterization, bioactivity, and POM analyses of isothiochromeno[3,4-e][1,2]oxazines” (2013).

In general, GI50 refers to the concentration that inhibits growth by half. A low value points to more potent growth inhibition.

For the molecule `Cc1ccc(C2=NOC3=c4ccccc4=CSC3=C2c2ccc(C)cc2)cc1`, the GI50 was > 100 µM with KM12; > 100 µM in the assay with MDA-MB-435; > 100 µM in the assay with MDA-MB-231; 22.9 µM in the assay on K562; > 100 µM with 786-0; > 100 µM with UACC-62. Also, the GI50 in the assay with SK-MEL-28, with SK-MEL-2, in the assay with LOX IMVI, with U-251, with SF-539 and with NCI-H23 was > 100 µM throughout.

Regarding `Cc1ccc(C2=C3SC=c4ccccc4=C3ON=C2c2ccc(Cl)cc2)cc1`, the GI50 in the assay on KM12 is > 100 µM; in the assay with MDA-MB-435 it was 44.2 µM; in the assay on MDA-MB-231 it was > 100 µM; in the assay with K562, 20.6 µM; in the assay on 786-0, 21.2 µM; with UACC-62, > 100 µM. Besides, the GI50 is > 100 µM with SK-MEL-28; > 100 µM with SK-MEL-2; 50 µM with LOX IMVI; 20 µM in the assay with U-251; > 100 µM in the assay with SF-539; 16.6 µM with NCI-H23.
